# ChEMBL document CHEMBL1201862, “PubChem BioAssay data set” (2004)
#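 Interpolation was linear, between the two tested concentrations surrounding the appropriate level; five concentrations were tested over 48 hours in 96-well plates. GI50 is the concentration that inhibits growth by half.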 Activity calls are given as the source filed them. Rule as the data show it: active = GI50 up to about 1.1 µM and inactive = higher. Where a SMILES comes first, the peptide text is derived from it. [ ]: non-standard residue; d: D form. The star is where a group is joined. Phe(4-NO2) = N[CH](Cc1ccc([N+](=O)[O-])cc1)C(=O)O; Boc = CC(C)(C)OC(=O)*; OtBu = CC(C)(C)O*
# Key:
# Assay in all cases: NCI-60 cell line screen, 48 h
# SR = test system: SR
# M14 = test system: M14
# MDA-MB-435 = test system: MDA-MB-435
# SF-539 = test system: SF-539
# NCI-H226 = test system: NCI-H226
# IGROV-1 = test system: IGROV-1
# OVCAR-8 = test system: OVCAR-8
# NCI-H460 = test system: NCI-H460
# SK-OV-3 = test system: SK-OV-3
# SF-268 = test system: SF-268
# A549 = test system: A549
# TK-10 = test system: TK-10
# K562 = test system: K562
# KM12 = test system: KM12
# PC-3 = test system: PC-3
# SN12C = test system: SN12C
# SK-MEL-2 = test system: SK-MEL-2
# SW-620 = test system: SW-620
# UO-31 = test system: UO-31
# HOP-62 = test system: HOP-62
# SF-295 = test system: SF-295
# DU-145 = test system: DU-145
# HT-29 = test system: HT-29
# EKVX = test system: EKVX
# COLO 205 = test system: COLO 205
# LOX IMVI = test system: LOX IMVI
# SNB-19 = test system: SNB-19
# HL-60 = test system: HL-60
# MOLT-4 = test system: MOLT-4
# NCI-H522 = test system: NCI-H522
# 786-0 = test system: 786-0
# NCI/ADR-RES = test system: NCI/ADR-RES
# T47D = test system: T47D
# RXF 393 = test system: RXF 393
# U-251 = test system: U-251
# OVCAR-4 = test system: OVCAR-4
# HCT-15 = test system: HCT-15
# HOP-92 = test system: HOP-92
# Hs-578T = test system: Hs-578T
# A498 = test system: A498
# CCRF-CEM = test system: CCRF-CEM
# RPMI-8226 = test system: RPMI-8226
# OVCAR-3 = test system: OVCAR-3
# SK-MEL-5 = test system: SK-MEL-5
# Malme-3M = test system: Malme-3M
# CAKI-1 = test system: CAKI-1
# OVCAR-5 = test system: OVCAR-5
# MDA-MB-231 = test system: MDA-MB-231
# ACHN = test system: ACHN
# SK-MEL-28 = test system: SK-MEL-28
# UACC-62 = test system: UACC-62
# MCF7 = test system: MCF7
# NCI-H23 = test system: NCI-H23
# SNB-75 = test system: SNB-75
# HCT-116 = test system: HCT-116
# MDA-N = test system: MDA-N
# HCC 2998 = test system: HCC 2998
# UACC-257 = test system: UACC-257
compound,measurement,setting,value
O=NC1C(Cl)C2CC1C1C(Br)C(Br)CC21 (stereo unspecified),GI50,SR,48.9 µM (inactive)
same,GI50,M14,> 100 µM (inactive)
same,GI50,MDA-MB-435,> 100 µM (inactive)
same,GI50,SF-539,> 100 µM (inactive)
same,GI50,NCI-H226,> 100 µM (inactive)
same,GI50,IGROV-1,> 100 µM (inactive)
same,GI50,OVCAR-8,> 100 µM (inactive)
same,GI50,NCI-H460,> 100 µM (inactive)
same,GI50,SK-OV-3,> 100 µM (inactive)
same,GI50,SF-268,> 100 µM (inactive)
same,GI50,A549,> 100 µM (inactive)
same,GI50,TK-10,> 100 µM (inactive)
same,GI50,K562,> 100 µM (inactive)
same,GI50,KM12,> 100 µM (inactive)
same,GI50,PC-3,> 100 µM (inactive)
same,GI50,SN12C,> 100 µM (inactive)
same,GI50,SK-MEL-2,> 100 µM (inactive)
same,GI50,SW-620,> 100 µM (inactive)
same,GI50,UO-31,> 100 µM (inactive)
same,GI50,HOP-62,> 100 µM (inactive)
same,GI50,SF-295,> 100 µM (inactive)
same,GI50,DU-145,> 100 µM (inactive)
same,GI50,HT-29,> 100 µM (inactive)
same,GI50,EKVX,> 100 µM (inactive)
same,GI50,COLO 205,> 100 µM (inactive)
same,GI50,LOX IMVI,> 100 µM (inactive)
same,GI50,SNB-19,> 100 µM (inactive)
same,GI50,HL-60,> 100 µM (inactive)
same,GI50,MOLT-4,> 100 µM (inactive)
same,GI50,NCI-H522,> 100 µM (inactive)
same,GI50,786-0,> 100 µM (inactive)
same,GI50,NCI/ADR-RES,> 100 µM (inactive)
same,GI50,T47D,> 100 µM (inactive)
same,GI50,RXF 393,> 100 µM (inactive)
same,GI50,U-251,> 100 µM (inactive)
same,GI50,OVCAR-4,> 100 µM (inactive)
same,GI50,HCT-15,> 100 µM
same,GI50,HOP-92,> 100 µM (inactive)
same,GI50,Hs-578T,> 100 µM (inactive)
same,GI50,A498,> 100 µM (inactive)
same,GI50,CCRF-CEM,62.7 µM (inactive)
same,GI50,RPMI-8226,20.8 µM (inactive)
same,GI50,OVCAR-3,> 100 µM (inactive)
same,GI50,SK-MEL-5,> 100 µM (inactive)
same,GI50,Malme-3M,> 100 µM (inactive)
same,GI50,CAKI-1,> 100 µM (inactive)
same,GI50,OVCAR-5,> 100 µM (inactive)
same,GI50,MDA-MB-231,> 100 µM (inactive)
same,GI50,ACHN,> 100 µM (inactive)
same,GI50,SK-MEL-28,> 100 µM (inactive)
same,GI50,UACC-62,> 100 µM (inactive)
same,GI50,MCF7,> 100 µM (inactive)
same,GI50,NCI-H23,> 100 µM (inactive)
same,GI50,SNB-75,> 100 µM (inactive)
same,GI50,HCT-116,> 100 µM (inactive)
CC(=O)NC(CCC(=O)OC(C)(C)C)C(=O)NC(CCC(=O)OC(C)(C)C)C(=O)NC(Cc1ccc([N+](=O)[O-])cc1)C(=O)NC(CCCCNC(=O)OC(C)(C)C)C(=O)NC(CCCCNC(=O)OC(C)(C)C)C(=O)NCC(=O)O (stereo unspecified) (Ac-E(OtBu)E(OtBu)[Phe(4-NO2)]K(Boc)K(Boc)G-OH; configuration not given here),GI50,SR,> 100 µM (inactive)
same,GI50,M14,20.5 µM (inactive)
same,GI50,MDA-MB-435,> 100 µM (inactive)
same,GI50,SF-539,> 100 µM (inactive)
same,GI50,NCI-H226,> 100 µM (inactive)
same,GI50,IGROV-1,> 100 µM (inactive)
same,GI50,OVCAR-8,> 100 µM (inactive)
same,GI50,NCI-H460,> 100 µM (inactive)
same,GI50,MDA-N,> 100 µM (inactive)
same,GI50,HCC 2998,> 100 µM (inactive)
same,GI50,SK-OV-3,> 100 µM (inactive)
same,GI50,SF-268,> 100 µM (inactive)
same,GI50,A549,> 100 µM (inactive)
same,GI50,TK-10,> 100 µM (inactive)
same,GI50,K562,> 100 µM (inactive)
same,GI50,KM12,> 100 µM (inactive)
same,GI50,UACC-257,> 100 µM (inactive)
same,GI50,PC-3,> 100 µM (inactive)
same,GI50,SN12C,> 100 µM (inactive)
same,GI50,SK-MEL-2,75.2 µM (inactive)
same,GI50,SW-620,> 100 µM (inactive)
same,GI50,UO-31,> 100 µM (inactive)
same,GI50,HOP-62,> 100 µM (inactive)
same,GI50,SF-295,> 100 µM (inactive)
same,GI50,DU-145,> 100 µM (inactive)
same,GI50,HT-29,> 100 µM (inactive)
same,GI50,EKVX,> 100 µM (inactive)
same,GI50,COLO 205,> 100 µM (inactive)
same,GI50,LOX IMVI,> 100 µM (inactive)
same,GI50,SNB-19,> 100 µM (inactive)
same,GI50,HL-60,> 100 µM (inactive)
same,GI50,MOLT-4,> 100 µM (inactive)
same,GI50,NCI-H522,> 100 µM (inactive)
same,GI50,786-0,> 100 µM (inactive)
same,GI50,NCI/ADR-RES,> 100 µM (inactive)
same,GI50,T47D,> 100 µM (inactive)
same,GI50,RXF 393,> 100 µM (inactive)
same,GI50,U-251,> 100 µM (inactive)
same,GI50,OVCAR-4,> 100 µM (inactive)
same,GI50,HCT-15,> 100 µM
same,GI50,HOP-92,> 100 µM (inactive)
same,GI50,CCRF-CEM,> 100 µM (inactive)
same,GI50,RPMI-8226,> 100 µM (inactive)
same,GI50,OVCAR-3,> 100 µM (inactive)
same,GI50,SK-MEL-5,7.35 µM (inactive)
same,GI50,Malme-3M,> 100 µM (inactive)
same,GI50,CAKI-1,> 100 µM (inactive)
same,GI50,OVCAR-5,> 100 µM (inactive)
same,GI50,MDA-MB-231,> 100 µM (inactive)
same,GI50,ACHN,> 100 µM (inactive)
same,GI50,SK-MEL-28,> 100 µM (inactive)
same,GI50,UACC-62,> 100 µM (inactive)
same,GI50,MCF7,> 100 µM (inactive)
same,GI50,NCI-H23,> 100 µM (inactive)
same,GI50,SNB-75,> 100 µM (inactive)
same,GI50,HCT-116,> 100 µM (inactive)
